Data: paper PMC6494879, “Drug resistance emergence in macaques administered cabotegravir long-acting for pre-exposure prophylaxis during acute SHIV infection” (Nature Communications, 2019)
Read-outs that look alike come from different tables or passages of the source.

Columns and labels:
[1] = tested on: SIV integrase WT (SIV IN RTV pseudovirus); assay: organism not typed; format: cell-based
[2] = tested on: SIV integrase E92Q (SIV IN RTV pseudovirus); format: cell-based; settings: E92Q SIV integrase mutant
[3] = tested on: SIV integrase G140R (SIV IN RTV pseudovirus); assay: organism not typed; format: cell-based; settings: HEK293
[4] = tested on: SIV integrase E92Q/G140R (SIV IN RTV pseudovirus); format: cell-based; settings: E92Q/G140R SIV integrase mutant
[5] = tested on: SIV integrase Q124R (SIV IN RTV pseudovirus); assay: organism not typed; format: cell-based
[6] = tested on: SIV integrase G118R (SIV IN RTV pseudovirus); format: cell-based; settings: G118R SIV integrase mutant
[7] = tested on: SIV integrase G118R/A122T (SIV IN RTV pseudovirus); format: cell-based; settings: G118R/A122T SIV integrase mutant
[8] = tested on: SIV integrase I72T (SIV IN RTV pseudovirus); assay: organism not typed; format: cell-based
[9] = tested on: SIV integrase I110V (SIV IN RTV pseudovirus); assay: organism not typed; format: cell-based
[10] = tested on: SIV integrase I250V (SIV IN RTV pseudovirus); assay: organism not typed; format: cell-based
[11] = tested on: SIV integrase E92G (SIV IN RTV pseudovirus)

C[C@H]1CO[C@@H]2Cn3cc(C(=O)NCc4ccc(F)cc4F)c(=O)c(O)c3C(=O)N12 [CAB, cabotegravir]
EC50 ([1]; HEK293): 1.19 nM
fold-change relative to wild type integrase ([1]; WT SIV integrase): 1 fold
fold-change relative to wild type integrase [2]: 2.5 fold
EC50 [3]: > 1000 nM
fold-change relative to wild type integrase [4]: > 840 fold
EC50 ([5]; HEK293): 1.22 nM
fold-change relative to wild type integrase ([5]; {}): 1.0 fold
fold-change relative to wild type integrase [6]: > 840 fold
fold-change relative to wild type integrase [7]: > 840 fold
EC50 ([8]; HEK293): 0.96 nM
fold-change relative to wild type integrase ([8]; {}): 0.8 fold
EC50 ([9]; HEK293): 1.27 nM
fold-change relative to wild type integrase ([9]; {}): 1.1 fold
EC50 ([10]; HEK293): 1.04 nM
fold-change relative to wild type integrase ([10]; {}): 0.9 fold
EC50 [11]: 4.2 nM
fold-change relative to wild type integrase [11]: 3.5 fold
time after which plasma CAB was below the limit of detection of the assay (four of the six animals): 115 to 176 days
Plasma CAB concentration (macaque 01D520, day 18): 11.2 µg/mL
Plasma CAB concentration (macaque 01D520, day 25): 7.1 µg/mL
Plasma CAB concentration (macaque 01D520, day 32): 2.24 µg/mL
Plasma CAB concentration (macaque 01D520, day 39): 0.239 µg/mL
Plasma CAB concentration (macaque 01D520, day 46): 6.87 µg/mL
Plasma CAB concentration (macaque 01D520, day 53): 5.88 µg/mL
Plasma CAB concentration (macaque 01D520, day 57): 4.57 µg/mL
Plasma CAB concentration (macaque 01D520, day 67): 0.943 µg/mL
Plasma CAB concentration (macaque 01D520, day 74): 6.2 µg/mL
Plasma CAB concentration (macaque 01D520, day 81): 4.17 µg/mL
Plasma CAB concentration (macaque 01D520, day 88): 2.42 µg/mL
Plasma CAB concentration (macaque 01D520, day 95): 0.992 µg/mL
Plasma CAB concentration (macaque 01D520, day 102): 0.432 µg/mL
Plasma CAB concentration (macaque 01D520, day 106): 0.273 µg/mL
Plasma CAB concentration (macaque 10D181, day 18): 3.2 µg/mL
Plasma CAB concentration (macaque 10D181, day 25): 3.88 µg/mL
Plasma CAB concentration (macaque 10D181, day 32): 2.79 µg/mL
Plasma CAB concentration (macaque 10D181, day 39): 1.33 µg/mL
Plasma CAB concentration (macaque 10D181, day 46): 3.45 µg/mL
Plasma CAB concentration (macaque 10D181, day 53): 5.06 µg/mL
Plasma CAB concentration (macaque 10D181, day 57): 3.47 µg/mL
Plasma CAB concentration (macaque 10D181, day 67): 1.51 µg/mL
Plasma CAB concentration (macaque 10D181, day 74): 2.76 µg/mL
Plasma CAB concentration (macaque 10D181, day 81): 3.57 µg/mL
Plasma CAB concentration (macaque 10D181, day 88): 2.78 µg/mL
Plasma CAB concentration (macaque 10D181, day 95): 1.5 µg/mL
Plasma CAB concentration (macaque 10D181, day 102): 0.454 µg/mL
Plasma CAB concentration (macaque 10D181, day 106): 0.227 µg/mL
Plasma CAB concentration (macaque 33996, day 18): 5.68 µg/mL
Plasma CAB concentration (macaque 33996, day 25): 6.38 µg/mL
Plasma CAB concentration (macaque 33996, day 32): 4.05 µg/mL
Plasma CAB concentration (macaque 33996, day 39): 3.3 µg/mL
Plasma CAB concentration (macaque 33996, day 46): 5.86 µg/mL
Plasma CAB concentration (macaque 33996, day 53): 9.39 µg/mL
Plasma CAB concentration (macaque 33996, day 57): 9.76 µg/mL
Plasma CAB concentration (macaque 33996, day 67): 1.4 µg/mL
Plasma CAB concentration (macaque 33996, day 74): 4.57 µg/mL
Plasma CAB concentration (macaque 33996, day 81): 6.04 µg/mL
Plasma CAB concentration (macaque 33996, day 88): 3.04 µg/mL
Plasma CAB concentration (macaque 33996, day 95): 1.43 µg/mL
Plasma CAB concentration (macaque 33996, day 102): 0.816 µg/mL
Plasma CAB concentration (macaque 33996, day 106): 0.611 µg/mL
Plasma CAB concentration (macaque 35451, day 18): 6.34 µg/mL
